Reference: patent EP0596112A1, “NOVEL MACROLIDE COMPOUND AND PRODUCTION THEREOF” (YAMANOUCHI PHARMACEUTICAL CO. LTD., priority 1991, dated 1992)
Values after ≈ are worked out from the molar mass of the structure shown.

Tests used:
[1] = Solubility (physicochemical properties)
[2] = system: Klebsiella pneumoniae ATTCC10031; test: In vitro antibacterial activity (MIC), agar plate dilution method using Müller-Hinton medium; assay type: cell-based
Protocol: (§1) In vitro antibacterial activity (MIC) The antibacterial spectrum of the macrolide compound of the present invention was determined by the agar plate dilution method using Müller-Hinton medium which is commonly used for this purpose.

[3] = system: Staphylococcus aureus FDA 209P; test: as above; assay type: cell-based; details: FDA209P
Protocol: as §1

[4] = system: Serratia marcescens IID620; test: as above; assay type: cell-based
Protocol: as §1

[5] = system: Streptococcus pneumoniae IID552; test: as above; assay type: cell-based
Protocol: as §1

[6] = system: Streptococcus pyogenes Cook; test: as above; assay type: cell-based
Protocol: as §1

[7] = system: Pseudomonas aeruginosa IID5142; test: as above; assay type: cell-based
Protocol: as §1

Escherichia coli 0-1 = test: as above; assay type: cell-based; details: 01
Protocol: as §1

Proteus vulgalis OX-19 = test: as above; assay type: cell-based
Protocol: as §1

[8] = system: Staphylococcus epidermidis IID866; test: as above; assay type: cell-based
Protocol: as §1

[9] = system: Enterococcus faecalis IID682; test: as above; assay type: cell-based
Protocol: as §1

[10] = system: Staphylococcus aureus FDA 209P JC-1; test: as above; assay type: cell-based; details: FDA209P
Protocol: as §1

[11] = in methanol, ethanol, acetone, ethyl acetate, benzene, toluene and chloroform

SMILES: COC1C(OCC(C)C2OC(=O)C(C)C(OC3CC(C)(O)C(O)C(C)O3)C(C)C(OC3OC(C)CC(=O)C3O)C(C)CC(C)(O)C(=O)C(C)C(OC(=O)CC(C)C)C2C)OC(C)C(O)C1OC (stereo not drawn) [YL-02107Q substance]
- Solubility [1, 11]: Soluble
- Solubility ([1]; in water and hexane): only sparingly soluble
- MIC [2]: > 100 µg/mL
- MIC [3]: 0.78 µg/mL (≈ 0.81 µM)
- MIC [4]: > 100 µg/mL
- MIC [5]: 3.13 µg/mL (≈ 3.25 µM)
- MIC [6]: 0.39 µg/mL (≈ 0.405 µM)
- MIC [7]: > 100 µg/mL
- MIC (Escherichia coli 0-1): > 100 µg/mL
- MIC (Proteus vulgalis OX-19): > 100 µg/mL
- MIC [8]: 0.78 µg/mL (≈ 0.81 µM)
- MIC [9]: 1.56 µg/mL (≈ 1.62 µM)

SMILES: COC1C(OCC(C)C2OC(=O)C(C)C(OC3CC(C)(O)C(O)C(C)O3)C(C)C(OC3OC(C)CC(=O)C3O)C(C)CC(C)(O)C(=O)C(C)C(O)C2C)OC(C)C(O)C1OC (stereo not drawn) [YL-02107Q-D substance]
- Solubility [1, 11]: Soluble
- Solubility ([1]; in water and hexane): only sparingly soluble
- MIC [2]: > 50 µg/mL
- MIC [4]: > 50 µg/mL
- MIC [5]: > 50 µg/mL
- MIC [6]: 0.78 µg/mL (≈ 0.887 µM)
- MIC [7]: > 50 µg/mL
- MIC (Escherichia coli 0-1): > 50 µg/mL
- MIC [10]: 3.13 µg/mL (≈ 3.56 µM)
- MIC (Proteus vulgalis OX-19): > 50 µg/mL
- MIC [8]: 1.56 µg/mL (≈ 1.77 µM)
- MIC [9]: > 50 µg/mL

SMILES: COC1C(OCC(C)C2OC(=O)C(C)C(OC3CC(O)C(O)C(C)O3)C(C)C(OC3OC(C)CC(=O)C3O)C(C)CC(C)(O)C(=O)C(C)C(OC(=O)CC(C)C)C2C)OC(C)C(O)C1OC (stereo not drawn) [YL-02107Q-B substance]
- Solubility [1, 11]: Soluble
- Solubility ([1]; in water and hexane): only sparingly soluble
- MIC [2]: > 50 µg/mL
- MIC [4]: > 50 µg/mL
- MIC [5]: 50 µg/mL (≈ 52.7 µM)
- MIC [6]: 0.78 µg/mL (≈ 0.822 µM)
- MIC [7]: > 50 µg/mL
- MIC (Escherichia coli 0-1): > 50 µg/mL
- MIC [10]: 3.13 µg/mL (≈ 3.3 µM)
- MIC (Proteus vulgalis OX-19): > 50 µg/mL
- MIC [8]: 3.13 µg/mL (≈ 3.3 µM)
- MIC [9]: 25 µg/mL (≈ 26.3 µM)
